In patent publication USRE48335E1, “Polymyxin derivatives as antimicrobial compounds” (priority 2014, dated 2020):
≈ marks a conversion by molar mass, not a printed value. Positions of bridges follow the written chain, without caps; N, C: chain ends. Non-standard residues stand in square brackets, D forms with d. Residues, ends and D or L forms follow the SMILES beside them. *: point of attachment. Benzoyl(4-CF3) = O=C(c1ccc(C(F)(F)F)cc1)*; Heptanoyl(6-Me) = CC(C)CCCCC(=O)*; dNva = CCC[C@@H](N)C(=O)O; Heptanoyl = CCCCCCC(=O)*; Octanoyl = CCCCCCCC(=O)*; Orn = NCCC[C@H](N)C(=O)O; Dab = NCC[C@H](N)C(=O)O; Abu = CC[C@H](N)C(=O)O; Dap = NC[C@H](N)C(=O)O; Hexanoyl = CCCCCC(=O)*

How the values were obtained:
[1] = tested on: Pseudomonas aeruginosa
Method: (§1) MICs of the lipopeptides (trifluoroacetic acid salt, TFA) were determined by broth microdilution in cation-adjusted Mueller-Hinton broth (CAMHB) (Oxoid Australia, Thebarton, SA, Australia) according to Clinical and Laboratory Standards Institute standards (Clinical and Laboratory Standards Institute. Performance standards for antimicrobial susceptibility testing; eighteenth informational supplement M100-S18. Wayne, Pa., 2008). Polymyxin B (sulphate) was employed as control. […]

[2] = tested on: Enterobacter cloacae
Method: as §1

[3] = tested on: Acinetobacter baumannii
Method: as §1

| SMILES | Minimum inhibitory concentration, Pa ATCC 27853 [1] [µg/mL] | Minimum inhibitory concentration, Pa FADDI-PA022 [1] [µg/mL] | Minimum inhibitory concentration, Pa FADDI-PA025 [1] [µg/mL] | Minimum inhibitory concentration, Ec FADDI-EC001 [2] [µg/mL] | Minimum inhibitory concentration, Ec FADDI-EC003 [2] [µg/mL] | Minimum inhibitory concentration, Ec FADDI-EC006 [2] [µg/mL] | Minimum inhibitory concentration, Ab A ATCC 17978 [3] [µg/mL] | Minimum inhibitory concentration, Ab ATCC 19606 [3] [µg/mL] | Minimum inhibitory concentration, Ab FADDI-AB034 [3] [µg/mL] |
| --- | --- | --- | --- | --- | --- | --- | --- | --- | --- |
| CCCCCCCC(=O)N[C@@H](CCN)C(=O)N[C@H](C(=O)N[C@@H](CN)C(=O)N[C@H]1CCNC(=O)[C@H]([C@@H](C)O)NC(=O)[C@H](CCN)NC(=O)[C@H](CCCN)NC(=O)[C@H]([C@@H](C)O)NC(=O)[C@@H](CC(C)C)NC(=O)[C@H](CCN)NC1=O)[C@@H](C)O [Compound 54] (Octanoyl-[Dab]T[Dap][Dab][Dab][dL]T[Orn][Dab]T; lactam 4-C) | 4 (≈ 3.5 µM) | 2 (≈ 1.75 µM) | 16 (≈ 14 µM) | <0.125 | <0.125 | 0.25 (≈ 0.219 µM) | 0.5 (≈ 0.437 µM) | 0.5 (≈ 0.437 µM) | 0.25 (≈ 0.219 µM) |
| CCCCCCCC(=O)N[C@@H](CCN)C(=O)N[C@H](C(=O)N[C@@H](CN)C(=O)N[C@H]1CCNC(=O)[C@H]([C@@H](C)O)NC(=O)[C@H](CCN)NC(=O)[C@H](CCN)NC(=O)[C@H]([C@@H](C)O)NC(=O)[C@@H](CC(C)C)NC(=O)[C@H](CCCN)NC1=O)[C@@H](C)O [Compound 55] (Octanoyl-[Dab]T[Dap][Dab][Orn][dL]T[Dab][Dab]T; lactam 4-C) | >32 | >32 | >32 | 1 (≈ 0.875 µM) | 4 (≈ 3.5 µM) | >32 | >32 | >32 | >32 |
| CC(C)C[C@H]1NC(=O)[C@H](CCN)NC(=O)[C@@H](NC(=O)[C@H](CN)NC(=O)[C@@H](NC(=O)[C@H](CCN)NC(=O)c2ccc(C(F)(F)F)cc2)[C@@H](C)O)CCNC(=O)[C@H]([C@@H](C)O)NC(=O)[C@H](CCN)NC(=O)[C@H](CCN)NC(=O)[C@H]([C@@H](C)O)NC1=O [Compound 56] ({Benzoyl(4-CF3)}-[Dab]T[Dap][Dab][Dab][dL]T[Dab][Dab]T; lactam 4-C) | 0.5 (≈ 0.425 µM) | 2 (≈ 1.7 µM) | 4 (≈ 3.4 µM) | <0.125 | <0.125 | 0.25 (≈ 0.213 µM) | 1 (≈ 0.851 µM) | 2 (≈ 1.7 µM) | 1 (≈ 0.851 µM) |
| CCCCCCCC(=O)N[C@@H](CCN)C(=O)N[C@H](C(=O)N[C@@H](CCN)C(=O)N[C@H]1CCNC(=O)[C@H]([C@@H](C)O)NC(=O)[C@H](CCN)NC(=O)[C@H](CCN)NC(=O)[C@H](CC)NC(=O)[C@@H](CC(C)C)NC(=O)[C@H](CCN)NC1=O)[C@@H](C)O [Compound 60] (Octanoyl-[Dab]T[Dab][Dab][Dab][dL][Abu][Dab][Dab]T; lactam 4-C) | 0.5 (≈ 0.443 µM) | 0.5 (≈ 0.443 µM) | 8 (≈ 7.1 µM) | <0.125 | <0.125 | 0.5 (≈ 0.443 µM) | 0.5 (≈ 0.443 µM) | 1 (≈ 0.887 µM) | 0.5 (≈ 0.443 µM) |
| CCCCCCC(=O)N[C@@H](CCN)C(=O)N[C@H](C(=O)N[C@@H](CN)C(=O)N[C@H]1CCNC(=O)[C@H]([C@@H](C)O)NC(=O)[C@H](CCN)NC(=O)[C@H](CCN)NC(=O)[C@H](C)NC(=O)[C@@H](CC(C)C)NC(=O)[C@H](CCN)NC1=O)[C@@H](C)O [Compound 63] (Heptanoyl-[Dab]T[Dap][Dab][Dab][dL]A[Dab][Dab]T; lactam 4-C) | 0.5 (≈ 0.461 µM) | 2 (≈ 1.84 µM) | >32 | 0.5 (≈ 0.461 µM) | <0.125 | 0.5 (≈ 0.461 µM) | 1 (≈ 0.921 µM) | 2 (≈ 1.84 µM) | 1 (≈ 0.921 µM) |
| CCCCCCC(=O)N[C@@H](CCN)C(=O)N[C@H](C(=O)N[C@@H](CN)C(=O)N[C@H]1CCNC(=O)[C@H]([C@@H](C)O)NC(=O)[C@H](CCN)NC(=O)[C@H](CCN)NC(=O)[C@H](CC)NC(=O)[C@@H](CC(C)C)NC(=O)[C@H](CCN)NC1=O)[C@@H](C)O [Compound 64] (Heptanoyl-[Dab]T[Dap][Dab][Dab][dL][Abu][Dab][Dab]T; lactam 4-C) | 1 (≈ 0.91 µM) | 2 (≈ 1.82 µM) | 8 (≈ 7.28 µM) | 0.5 (≈ 0.455 µM) | <0.125 | 0.25 (≈ 0.227 µM) | 0.5 (≈ 0.455 µM) | 0.5 (≈ 0.455 µM) | 1 (≈ 0.91 µM) |
| CC(C)CCCCC(=O)N[C@@H](CCN)C(=O)N[C@H](C(=O)N[C@@H](CN)C(=O)N[C@H]1CCNC(=O)[C@H]([C@@H](C)O)NC(=O)[C@H](CCN)NC(=O)[C@H](CCN)NC(=O)[C@H](C)NC(=O)[C@@H](CC(C)C)NC(=O)[C@H](CCN)NC1=O)[C@@H](C)O [Compound 65] ({Heptanoyl(6-Me)}-[Dab]T[Dap][Dab][Dab][dL]A[Dab][Dab]T; lactam 4-C) | 1 (≈ 0.91 µM) | 2 (≈ 1.82 µM) | 16 (≈ 14.6 µM) | 0.5 (≈ 0.455 µM) | <0.125 | 0.25 (≈ 0.227 µM) | 0.25 (≈ 0.227 µM) | 0.5 (≈ 0.455 µM) | 1 (≈ 0.91 µM) |
| CC[C@@H]1NC(=O)[C@@H](CC(C)C)NC(=O)[C@H](CCN)NC(=O)[C@@H](NC(=O)[C@H](CN)NC(=O)[C@@H](NC(=O)[C@H](CCN)NC(=O)CCCCC(C)C)[C@@H](C)O)CCNC(=O)[C@H]([C@@H](C)O)NC(=O)[C@H](CCN)NC(=O)[C@H](CCN)NC1=O [Compound 66] ({Heptanoyl(6-Me)}-[Dab]T[Dap][Dab][Dab][dL][Abu][Dab][Dab]T; lactam 4-C) | 1 (≈ 0.898 µM) | 2 (≈ 1.8 µM) | 4 (≈ 3.59 µM) | 0.5 (≈ 0.449 µM) | <0.125 | 0.25 (≈ 0.225 µM) | 0.25 (≈ 0.225 µM) | 0.25 (≈ 0.225 µM) | 0.5 (≈ 0.449 µM) |
| CCCCCC(=O)N[C@@H](CCN)C(=O)N[C@H](C(=O)N[C@@H](CN)C(=O)N[C@H]1CCNC(=O)[C@H]([C@@H](C)O)NC(=O)[C@H](CCN)NC(=O)[C@H](CCN)NC(=O)[C@H](C)NC(=O)[C@@H](CC(C)C)NC(=O)[C@H](CCN)NC1=O)[C@@H](C)O [Compound 67] (Hexanoyl-[Dab]T[Dap][Dab][Dab][dL]A[Dab][Dab]T; lactam 4-C) | 0.5 (≈ 0.467 µM) | 0.5 (≈ 0.467 µM) | 2 (≈ 1.87 µM) | <0.125 | 0.25 (≈ 0.233 µM) | 0.5 (≈ 0.467 µM) | 2 (≈ 1.87 µM) | 4 (≈ 3.73 µM) | 4 (≈ 3.73 µM) |
| CCCCCC(=O)N[C@@H](CCN)C(=O)N[C@H](C(=O)N[C@@H](CN)C(=O)N[C@H]1CCNC(=O)[C@H]([C@@H](C)O)NC(=O)[C@H](CCN)NC(=O)[C@H](CCN)NC(=O)[C@H](CC)NC(=O)[C@@H](CC(C)C)NC(=O)[C@H](CCN)NC1=O)[C@@H](C)O [Compound 68] (Hexanoyl-[Dab]T[Dap][Dab][Dab][dL][Abu][Dab][Dab]T; lactam 4-C) | 0.5 (≈ 0.461 µM) | 0.5 (≈ 0.461 µM) | 2 (≈ 1.84 µM) | 0.25 (≈ 0.23 µM) | <0.125 | <0.125 | 1 (≈ 0.921 µM) | 2 (≈ 1.84 µM) | 1 (≈ 0.921 µM) |
| CCCCCCCC(=O)N[C@@H](CCN)C(=O)N[C@H](C(=O)N[C@@H](CN)C(=O)N[C@H]1CCNC(=O)[C@H]([C@@H](C)O)NC(=O)[C@H](CCN)NC(=O)[C@H](CCN)NC(=O)[C@H](CC)NC(=O)[C@@H](CCC)NC(=O)[C@H](CCN)NC1=O)[C@@H](C)O [Compound 69] (Octanoyl-[Dab]T[Dap][Dab][Dab][dNva][Abu][Dab][Dab]T; lactam 4-C) | 0.5 (≈ 0.455 µM) | 0.5 (≈ 0.455 µM) | 8 (≈ 7.28 µM) | 0.25 (≈ 0.227 µM) | <0.125 | <0.125 | 0.5 (≈ 0.455 µM) | 0.5 (≈ 0.455 µM) | 0.25 (≈ 0.227 µM) |
